Read-outs that look alike come from different tables or passages of the source.
System: metastatic RCC patients
Type: in vivo, human
Details: for HR, overall survival, +CY vs −CY arm / HR (95% CI), overall survival, +CY vs −CY arm: IMA901-treated patients
Protocol: The IMA901-202 (phase II) study used univariate and multivariate analyses to identify parameters which alone or in combination serve as predictive biomarkers for the success in terms of immune response induction and prolongation of overall survival of IMA901 treatment of metastatic RCC patients.
To achieve this, around 450 parameters (patient- or tumor-related parameters as well as analytes measured in serum or urine and cellular parameters) were analyzed using pre-treatment samples of the IMA901-202 (phase II) study population. For multivariate analyses, which selected a set of several parameters, those parameters that required preparation of peripheral blood mononuclear cells (PBMCs) were not included in order to limit measurement costs in future trials. Parameters were analyzed for their association with overall survival and T-cell responses.
Thereby, the selection of purely prognostic markers, which by definition would show association with overall survival in both arms, was avoided.
All samples were collected before any therapeutic study intervention, either three days before vaccination and immediately before administration of cyclophosphamide in the +CY arm, or immediately before vaccination. Serum samples were taken using a serum/gel-[…] (Becton Dickinson, 5 ml), inverted and incubated for a minimum of 30 minutes. Tubes were centrifuged for 15 minutes at least 1200×g, and serum (approximately 2 ml) was transferred into a NUNC cryotube (3.6 ml). Cryotubes were stored immediately at <−20° C. until measurement. […] Urine was collected shortly before vaccination. For dipstick examination, only fresh urine was used. Citrated plasma for analysis of coagulation was collected approximately two weeks before vaccination. Samples were taken using a citrate-[…] and centrifuged within 30 minutes at least 1200×g at ambient temperature. Supernatant plasma was transferred into microtubes.
Biomarker measurement methods included ELISA, multiplex immunoassays, epigenetic assays, mass spectrometry, FACS analyses, routine clinical methods of haematology, clinical chemistry and urine analysis, and other methods.
The interaction of parameters with CY-pre-treatment was assessed using the Cox proportional hazards model. Candidates showing an interaction p value of <0.05 at any cutoff value that was not at the extreme ends of the distribution (i.e. selecting or de-selecting >˜5% of patients) were considered as interesting.
Moreover, to exclude parameters with significant interaction due to inverse association of cyclophosphamide pre-treatment with overall survival in the unfavorable biomarker group, an additional criterion was significant association (p<0.05) with overall survival in the positive biomarker group. A significant (p<0.05) association with overall survival in the +CY group, but not in the −CY group was considered to be an additional hint for the predictive instead of prognostic quality of a parameter.
Multivariate biomarkers were determined according to a Cox proportional hazard model, whose properties and extensions are described in the following.

O=P1(N(CCCl)CCCl)NCCCO1 (stereo not shown) [cyclophosphamide] was tested, and the “patients still alive at the end of the study” value (CCL17/TARC-positive cyclophosphamide-pre-treated patients, IMA901 treatment (FIG. 1D)) was 75%, the “HR, interaction of biomarker with cyclophosphamide pre-treatment (overall survival)” value (from here on “HR, interaction of biomarker”) (biomarker ApoA1, cutoff 0.264 mg/ml) was 0.43 and the “HR, interaction of biomarker” value (biomarker CCL17/TARC, cutoff 161.99 pg/ml) was 0.26. For the same compound, the “HR, interaction of biomarker” value (biomarker CXCL13/BCA-1, cutoff 64.21 pg/ml) was 0.3271, the “HR, interaction of biomarker” value (biomarker monocytes, cutoff 7.7%) was 0.22 and the “HR, overall survival, +CY vs −CY arm” value (biomarker-negative group, ApoA1, cutoff 0.264 mg/ml) was 0.84. For the same compound, the “HR, overall survival, +CY vs −CY arm” value (biomarker-negative group, CCL17/TARC, cutoff 161.99 pg/ml) was 0.85, the “HR, overall survival, +CY vs −CY arm” value (biomarker-negative group, CXCL13/BCA-1, cutoff 64.21 pg/ml) was 1.07 and the “HR, overall survival, +CY vs −CY arm” value (biomarker-negative group, monocytes, cutoff 7.7%) was 1.31. For the same compound, the “HR (95% CI), overall survival, +CY vs −CY arm” value (biomarker-negative group, multivariate biomarker, cutoff 0.019076043 points) was 2.5 (0.95-6.58);, the “HR, overall survival, +CY vs −CY arm” value (biomarker-positive group, ApoA1, cutoff 0.264 mg/ml) was 0.36 and the “HR, overall survival, +CY vs −CY arm” value (biomarker-positive group, CCL17/TARC, cutoff 161.99 pg/ml) was 0.22. The “HR, overall survival, +CY vs −CY arm” value (biomarker-positive group, CXCL13/BCA-1, cutoff 64.21 pg/ml) was 0.35, the “HR, overall survival, +CY vs −CY arm” value (biomarker-positive group, monocytes, cutoff 7.7%) was 0.29 and the “HR (95% CI), overall survival, +CY vs −CY arm” value (biomarker-positive group, multivariate biomarker, cutoff 0.019076043 points) was 0.08 (0.02-0.38);. For the same compound, the “HR (95% CI), interaction of multivariate biomarker with cyclophosphamide pre-treatment (overall survival)” value (multivariate biomarker, cutoff 0.019076043 points) was 0.032 (0.0055-0.1863);.

Source: patent US9389235B2, “Methods of using biomarkers for predicting the outcome of an immunotherapy against cancer” (priority 2010, dated 2016)
